The text below walks through data of patent US20240382494A1, “THERAPEUTIC COMPOUNDS” (priority 2023, published 2024).

In general, IC50 refers to the concentration at which inhibition is half-maximal. For orientation: CC50 means the concentration giving 50% cytotoxicity.

Each structure is given as a SMILES string. Some results are limits rather than exact numbers.

For one data set, the target named is SARS-CoV-2 PLpro (Severe acute respiratory syndrome coronavirus 2, UniProt P0DTD1). Description: FRET-based PLpro enzymatic assay. The note with it: 200 nM PLpro, 10 μM FRET substrate, 30 min preincubation at 30° C.; read-out: IC50. The data set is classed as biochemical. The method, then:
The SARS-CoV-2 PL^pro enzymatic assays were carried out as follows. The assay was assembled in 96-well plates with 100 μl of 200 nM PL^Pro protein in PL^Pro reaction buffer [50 mM Hepes (pH 7.5), 0.01% Triton X-100, and 5 mM DTT]. Then, 1 μl of testing compound at various concentrations was added to each well and incubated at 30° C. for 30 minutes. The enzymatic reaction was initiated by adding 1 μl of 1 mM FRET substrate (the final substrate concentration is 10 μM). The reaction was monitored in a Cytation 5 image reader with filters for excitation at 360/40 nm and emission at 460/40 nm at 30° C. for 1 hour. The initial velocity of the enzymatic reaction with and without testing compounds was calculated by linear regression for the first 15 minutes of the kinetic progress curve. The IC50 values were calculated by plotting the initial velocity against various concentrations of testing compounds with a dose-response function in Prism 8 software.

The nature of data set [1]: Cytotoxicity assay in Vero E6 cells (neutral red uptake). The note with it: African green monkey; Vero E6 cells, 2 days at 37° C., neutral red uptake; read-out: Vero CC50. The data set is classed as cell-based. The method, then:
Briefly, 80.000 cells/ml of the tested cell lines were dispensed into 96-well cell culture plates at 100 μl per well Twenty-four hours later, the growth medium was removed and washed with 150 μl of PBS buffer. Two hundred microliters of fresh serum-free medium containing serial diluted compounds was added to each well. After incubating for 2 days at 37° C., the medium was removed and replaced with 100 μl of DMEM medium containing neutral red (40 μg/ml) and incubated for 2 to 4 hours at 37° C. The amount of neutral red taken up was determined by measuring the absorbance at 540 nm using a Multiskan FC Microplate Photometer (Thermo Fisher Scientific) The CC50 values were calculated from best-fit dose-response curves with variable slope in Prism 8.

Regarding `Cc1ccc(OCCN(C)C)cc1C(=O)N[C@H](C)c1cc(-c2cnn(C3CCC3)c2)nc2ccccc12` [Example 64, (R)—N-(1-(2-(1-cyclobutyl-1H-pyrazol-4-yl)quinolin-4-yl)ethyl)-5-(2-(dimethylamino)ethoxy)-2-methylbenzamide], the 50% inhibitory concentration (IC50) on SARS-CoV-2 PLpro is less than 0.5 µM. Besides, in data set [1], the CC50 at 2 days is 25.3 ± 5.82 µM.

As for `Cc1ccc(OCCN(C)C)cc1C(=O)N[C@H](C)c1cc(-c2cnn(C(C)(C)C)c2)nc2ccccc12` [Example 65, (R)—N-(1-(2-(1-(tert-butyl)-1H-pyrazol-4-yl)quinolin-4-yl)ethyl)-5-(2-(dimethyl-amino)ethoxy)-2-methylbenzamide], the IC50 at SARS-CoV-2 PLpro was less than 0.5 µM. Moreover, in data set [1], the CC50 at 2 days was 19.1 ± 2.75 µM.

With `Cc1ccc(OCCN(C)C)cc1C(=O)N[C@H](C)c1cc(-c2cncn2C)nc2ccccc12` [Example 66, (R)-5-(2-(dimethylamino)ethoxy)-2-methyl-N-(1-(2-(1-methyl-1H-imidazol-5-yl)quinolin-4-yl)ethyl)benzamide], the IC50 on SARS-CoV-2 PLpro was less than 0.5 µM. In addition, in data set [1], the CC50 at 2 days amounted to 79.5 ± 8.62 µM.

Consider `COc1cccc(-c2cc([C@@H](C)NC(=O)c3cc(OCCN(C)C)ccc3C)c3ccccc3n2)c1` [Example 67, (R)-5-(2-(dimethylamino)ethoxy)-N-(1-(2-(3-methoxyphenyl)-quinolin-4-yl)ethyl)-2-methylbenzamide], for which the IC50 on SARS-CoV-2 PLpro was less than 0.5 µM. Also, the CC50 at 2 days in data set [1] came out at 17.2 ± 3.25 µM.

As to `COc1cc(-c2cc([C@@H](C)NC(=O)c3cc(OCCN(C)C)ccc3C)c3ccccc3n2)cs1` [Example 68, (R)-5-(2-(dimethylamino)ethoxy)-N-(1-(2-(5-methoxythiophene-3-yl)quinolin-4-yl)ethyl)-2-methylbenzamide], on SARS-CoV-2 PLpro, the IC50 was less than 0.5 µM. Further, in data set [1], the half-maximal cytotoxic concentration (CC50) at 2 days worked out at 13.9 ± 4.32 µM.

As for `Cc1ccc(OCCN(C)C)cc1C(=O)N[C@H](C)c1cc(-c2cnn(CC(=O)N3CCCC3)c2)nc2ccccc12` [Example 69, (R)-5-(2-(dimethylamino)ethoxy)-2-methyl-N-(1-(2-(1-(2-oxo-2-(pyrrolidin-1-yl)ethyl)-1H-pyrazol-4-yl)quinolin-4-yl)ethyl)benzamide], the IC50 on SARS-CoV-2 PLpro was less than 0.5 µM. In addition, in data set [1], the CC50 at 2 days amounted to 26.4 ± 4.5 µM.

As to `CSc1ccc(-c2cc([C@@H](C)NC(=O)c3cc(OCCN(C)C)ccc3C)c3ccccc3n2)cc1` [Example 70, (R)-5-(2-(dimethylamino)ethoxy)-2-methyl-N-(1-(2-(4-(methylthio)phenyl)quinolin-4-yl)ethyl)benzamide], on SARS-CoV-2 PLpro, the IC50 is less than 0.5 µM. The CC50 at 2 days in data set [1] was 8.5 ± 2.01 µM.

As to `Cc1ccc(OCCN(C)C)cc1C(=O)N[C@H](C)c1cc(-c2cnn(CC(=O)N(C)C)c2)nc2ccccc12` [Example 71, (R)—N-(1-(2-(1-(2-(dimethylamino)-2-oxoethyl)-1H-pyrazol-4-yl)quinolin-4-yl)ethyl)-5-(2-(dimethylamino)ethoxy)-2-methylbenzamide], the IC50 at SARS-CoV-2 PLpro is less than 0.5 µM. For the same compound, the CC50 at 2 days in data set [1] is more than 250 µM.

Take `Cc1ccc(N2CCN(C)CC2)cc1C(=O)N[C@H](C)c1cc(-c2ccco2)nc2ccccc12` [Example 74, (R)—N-(1-(2-(furan-2-yl)quinolin-4-yl)ethyl)-2-methyl-5-(4-methylpiperazin-1-yl)benzamide]: on SARS-CoV-2 PLpro, the IC50 was less than 0.5 µM. The CC50 at 2 days in data set [1] was found to be 19.5 ± 1.13 µM.

Consider `Cc1ccc(N2CCN(C)C3(CC3)C2)cc1C(=O)N[C@H](C)c1cc(-c2cnn(C)c2)nc2ccccc12` [Example 80, (R)-2-methyl-N-(1-(2-(1-methyl-1H-pyrazol-4-yl)quinolin-4-yl)ethyl)-5-(4-methyl-4,7-diazaspiro[2.5]octan-7-yl)benzamide], for which the IC50 at SARS-CoV-2 PLpro was less than 0.5 µM. Further, in data set [1], the CC50 at 2 days was 49.7 ± 4.65 µM.

For `Cc1ccc(O[C@H]2CCN(C)C2)cc1C(=O)N[C@H](C)c1cc(-c2cnn(C)c2)nc2ccccc12` [Example 82, 2-methyl-N—((R)-1-(2-(1-methyl-1H-pyrazol-4-yl)quinolin-4-yl)ethyl)-5-(((S)-1-methyl-pyrrolidin-3-yl)oxy)benzamide], on SARS-CoV-2 PLpro, the IC50 is less than 0.5 µM. The CC50 at 2 days in data set [1] turned out to be 48.3 ± 2.9 µM.

Take `Cc1ccc(OC[C@@H]2CCCN2C)cc1C(=O)N[C@H](C)c1cc(-c2cnn(C)c2)nc2ccccc12` [Example 84, 2-methyl-N—((R)-1-(2-(1-methyl-1H-pyrazol-4-yl)quinolin-4-yl)ethyl)-5-(((S)-1-methylpyrrolidin-2-yl)methoxy)benzamide]: at SARS-CoV-2 PLpro, the IC50 is less than 0.5 µM. Also, the CC50 at 2 days in data set [1] worked out at 103 ± 24.4 µM.

Regarding `Cc1ccc(OC[C@@H]2C[C@@H](F)CN2C)cc1C(=O)N[C@H](C)c1cc(-c2cnn(C)c2)nc2ccccc12` [Example 85, 5-(((2S,4R)-4-fluoro-1-methylpyrrolidin-2-yl)methoxy)-2-methyl-N—((R)-1-(2-(1-methyl-1H-pyrazol-4-yl)quinolin-4-yl)ethyl)benzamide], the 50% inhibitory concentration (IC50) at SARS-CoV-2 PLpro was less than 0.5 µM. For the same compound, the CC50 at 2 days in data set [1] was 33.9 ± 3.74 µM.

`Cc1ccc(C2=CCN(C)CC2)cc1C(=O)N[C@H](C)c1cc(-c2cnn(C)c2)nc2ccccc12` [Example 86, (R)-2-methyl-5-(1-methyl-1,2,3,6-tetrahydropyridin-4-yl)-N-(1-(2-(1-methyl-1H-pyrazol-4-yl)quinolin-4-yl)ethyl)benzamide]: the IC50 at SARS-CoV-2 PLpro lay within 1 to 5 µM. Further, the CC50 at 2 days in data set [1] came out at 92.7 ± 4.59 µM.

For the compound `Cc1ccc(N2CCC(N(C)C)CC2)cc1C(=O)N[C@H](C)c1cc(-c2cnn(C)c2)nc2ccccc12` [Example 87, (R)-5-(4-(dimethylamino)piperidin-1-yl)-2-methyl-N-(1-(2-(1-methyl-1H-pyrazol-4-yl)quinolin-4-yl)ethyl)benzamide], the IC50 at SARS-CoV-2 PLpro was in the range of 1 to 5 µM. Besides, the CC50 at 2 days in data set [1] stood at 73.8 ± 5.88 µM.

For `Cc1ccc(N(C)C2CN(C)C2)cc1C(=O)N[C@H](C)c1cc(-c2cnn(C)c2)nc2ccccc12` [Example 88, (R)-2-methyl-5-(methyl(1-methylazetidin-3-yl)amino)-N-(1-(2-(1-methyl-1H-pyrazol-4-yl)quinolin-4-yl)ethyl)benzamide], on SARS-CoV-2 PLpro, the IC50 was in the range of 1 to 5 µM. The CC50 at 2 days in data set [1] was determined as 97.4 ± 6.51 µM.

With `Cc1ccc(N(C)CC2CN(C)C2)cc1C(=O)N[C@H](C)c1cc(-c2cnn(C)c2)nc2ccccc12` [Example 89, (R)-2-methyl-5-(methyl((1-methylazetidin-3-yl)methyl)amino)-N-(1-(2-(1-methyl-1H-pyrazol-4-yl)quinolin-4-yl)ethyl)benzamide], the IC50 on SARS-CoV-2 PLpro was 1 to 5 µM. Besides, the CC50 at 2 days in data set [1] is 89.3 µM.

For the compound `Cc1ccc(OC2CN(C)C2)cc1C(=O)N[C@H](C)c1cc(-c2cnn(C)c2)nc2ccccc12` [Example 90, (R)-2-methyl-N-(1-(2-(1-methyl-1H-pyrazol-4-yl)quinolin-4-yl)ethyl)-5-((1-methylazetidin-3-yl)oxy)benzamide], the IC50 on SARS-CoV-2 PLpro is less than 0.5 µM. Besides, the CC50 at 2 days in data set [1] amounted to 72.5 ± 2.08 µM.

Consider `Cc1ccc(OCC2CN(C)C2)cc1C(=O)N[C@H](C)c1cc(-c2cnn(C)c2)nc2ccccc12` [Example 91, (R)-2-methyl-N-(1-(2-(1-methyl-1H-pyrazol-4-yl)quinolin-4-yl)ethyl)-5-((1-methylazetidin-3-yl)methoxy)benzamide], for which, at SARS-CoV-2 PLpro, the IC50 is less than 0.5 µM. Moreover, the CC50 at 2 days in data set [1] was 96.1 ± 5.36 µM.

With `Cc1ccc(N2CCC3(CC2)CN(C)C3)cc1C(=O)N[C@H](C)c1cc(-c2cnn(C)c2)nc2ccccc12` [Example 92, (R)-2-methyl-N-(1-(2-(1-methyl-1H-pyrazol-4-yl)quinolin-4-yl)ethyl)-5-(2-methyl-2,7-diazaspiro[3.5]nonan-7-yl)benzamide], the IC50 on SARS-CoV-2 PLpro was in the range of 0.5 to 1 µM. For the same compound, the CC50 at 2 days in data set [1] was found to be 76.5 ± 2.18 µM.

On to `Cc1ccc(N(C)C2(C)CN(C)C2)cc1C(=O)N[C@H](C)c1cc(-c2cnn(C)c2)nc2ccccc12` [Example 93, (R)-5-((1,3-dimethylazetidin-3-yl)(methyl)amino)-2-methyl-N-(1-(2-(1-methyl-1H-pyrazol-4-yl)quinolin-4-yl)ethyl)benzamide], for which, at SARS-CoV-2 PLpro, the IC50 is 1 to 5 µM. In data set [1], the CC50 at 2 days was 129 ± 2.32 µM.

Take `Cc1ccc(NC2(C)CN(C)C2)cc1C(=O)N[C@H](C)c1cc(-c2cnn(C)c2)nc2ccccc12` [Example 94, (R)-5-((1,3-dimethylazetidin-3-yl)amino)-2-methyl-N-(1-(2-(1-methyl-1H-pyrazol-4-yl)quinolin-4-yl)ethyl)benzamide]: the IC50 on SARS-CoV-2 PLpro fell in the range of 1 to 5 µM. The CC50 at 2 days in data set [1] worked out at 154 µM.

Consider `Cc1ccc(N2CC(N(C)C)C2)cc1C(=O)N[C@H](C)c1cc(-c2cnn(C)c2)nc2ccccc12` [Example 95, (R)-5-(3-(dimethylamino)azetidin-1-yl)-2-methyl-N-(1-(2-(1-methyl-1H-pyrazol-4-yl)quinolin-4-yl)ethyl)benzamide], for which the IC50 on SARS-CoV-2 PLpro was in the range of 0.5 to 1 µM. In addition, the CC50 at 2 days in data set [1] was determined as 311 ± 21.1 µM.

For the compound `Cc1ccc(N2CC[C@@H](N(C)C)C2)cc1C(=O)N[C@H](C)c1cc(-c2cnn(C)c2)nc2ccccc12` [Example 96, 5-((R)-3-(dimethylamino)pyrrolidin-1-yl)-2-methyl-N—((R)-1-(2-(1-methyl-1H-pyrazol-4-yl)quinolin-4-yl)ethyl)benzamide], the IC50 on SARS-CoV-2 PLpro was less than 0.5 µM. Also, the CC50 at 2 days in data set [1] was 28.8 µM.
